Marks after values point to notes of the source that are not given here.
Assays:
[1] = system: MoAb MNV80 (IgG1, κ); assay type: binding, mouse
[2] = system: PoAbs (anti-NIV polyclonal antibodies, mouse serum); assay type: binding
[3] = system: MoAb MNV87 (IgG1, κ); assay type: binding, mouse
[4] = cited from earlier work
[5] = system: animals; settings: cited from earlier work
[6] = system: monoclonal antibody (MoAb) prepared by Maragos et al.; settings: cited from earlier work

Row | Molecule | IC50 (fifty percent inhibitory concentration) with MoAb MNV80 [1] [µg/mL] | fold lower IC50 than that with NIV, MNV80 [1] [fold] | reaction range, concentrations between the IC20 and IC80 values, MNV80 [1] [µg/mL] | reactivity with MNV80 (in words) [1] | IC50 (fifty percent inhibitory concentration) with PoAb [2] | fold lower IC50 than that with NIV, PoAbs [2] [fold] | reaction range, concentrations between the IC20 and IC80 values, PoAbs [2] [µg/mL] | IC50 (fifty percent inhibitory concentration) with MoAb MNV87 [3] [µg/mL] | fold lower IC50 than that with NIV, MNV87 [3] [fold] | reaction range, concentrations between the IC20 and IC80 values, MNV87 [3] [µg/mL] | reactivity with MNV87 (in words) [3] | temporary tolerable daily intake level ([4]; LOAEL with a safety factor of 1000) [μg/kg body weight] | toxicity to animals compared with DON (in words) [5] | cross-reactivity compared to reactivity with DON [6] [%] | IC50 of PoAb after the 1st booster immunization [2] [µg/mL] | lowest observed adverse effect level [4] [mg/kg body weight per day]
1 | CC(=O)OC[C@]12[C@H](O)C(=O)C(C)=C[C@H]1O[C@@H]1[C@H](O)[C@@H](O)[C@@]2(C)[C@]12CO2 [15-Ac-NIV, 15-acetylnivalenol] | 0.018 | 2 | 0.0028 to 0.1 | specifically reacted | 11 ng/mL | 6.4 | 0.0017 to 0.085 | 0.018 | 2 | 0.0024 to 0.095 | specifically reacted | – | – | – | – | –
2 | CC(=O)O[C@@H]1C[C@]2(C)[C@@]3(CO)[C@H](O)C(=O)C(C)=C[C@H]3O[C@H]1[C@@]21CO1 [3-Ac-DON, 3-acetyldeoxynivalenol] | >1 | – | – | – | – | – | – | >1 | – | – | – | – | – | – | – | –
3 | CC1=C[C@H]2O[C@@H]3[C@H](O)C[C@](C)([C@@]2(CO)[C@H](O)C1=O)[C@]31CO1 [DON, deoxynivalenol] | >1 | – | – | not | >1000 ng/mL | – | – | >1 | – | – | not | 1.0 | – | – | – | –
4 | CC(=O)OC[C@]12[C@H](O)C(=O)C(C)=C[C@H]1O[C@@H]1[C@H](O)C[C@@]2(C)[C@]12CO2 [15-Ac-DON, 15-acetyldeoxynivalenol] | >1 | – | – | – | – | – | – | >1 | – | – | – | – | – | – | – | –
5 | CC1=C[C@H]2O[C@@H]3[C@H](O)[C@@H](O)[C@](C)([C@@]2(CO)[C@H](O)C1=O)[C@]31CO1 [NIV, nivalenol] | 0.036 | – | 0.0069 to 0.18 | specifically reacted | 70 * ng/mL | – | 0.012 to 0.95 | 0.037 | – | 0.0071 to 0.17 | specifically reacted | – | more toxic to animals than DON | 57.4 | 1.4 | 0.7
6 | 4-acetylnivalenol [4-Ac-NIV] | >1 | – | – | not | >1000 ng/mL | – | – | >1 | – | – | not | – | – | – | – | –

From article PMC9693464 (Toxins, 2022)
